This test has as its system HCT116. In words: In vitro cytotoxicity measured by the cell colony formation assay. Format: cell-based. The settings on record: HCT116 cells, 72 h drug incubation, colonies counted after 7 days; ID50 = drug concentration producing 50% inhibition of colony formation; read-out: IN VITRO ID 50 (nm) HCT116. The method, then: In Vitro Cytotoxicity Measured by the Cell Colony Formation Assay
Four hundred cells (HCT116) were plated in 60 mm Petri dishes containing 2.7 mL of medium (modified McCoy's 5a medium containing 10% fetal bovine serum and 100 units/mL penicillin and 100 µg/mL streptomycin). The cells were incubated in a CO2 incubator at 37° C. for 5 h for attachment to the bottom of Petri dishes. The compounds identified in Example 2 were made up fresh in medium at ten times the final concentration, and then 0.3 mL of this stock solution was added to the 2.7 mL of medium in the dish. The cells were then incubated with drugs for 72 h at 37° C. At the end of incubation the drug-containing media were decanted, the dishes were rinsed with 4 mL of Hank's Balance Salt Solution (HBSS), 5 mL of fresh medium was added, and the dishes were returned to the incubator for colony formation. The cell colonies were counted using a colony counter after incubation for 7 days.

Structures are written as SMILES.

Turning to `CC(=O)OC12COC1CC(O)C1(C)C(=O)C(OC(=O)c3ccco3)C3=C(C)C(OC(=O)C(O)C(NC(=O)OC(C)(C)C)C4CCC4)CC(O)(C(OC(=O)c4ccccc4)C21)C3(C)C` (centres unmarked) [Compound 2199], the IC50 was < 10 nM.

Turning to `CC(=O)O[C@@]12CO[C@@H]1C[C@H](O)[C@@]1(C)C(=O)[C@H](OC(=O)C=C(C)C)C3=C(C)[C@@H](OC(=O)[C@H](O)[C@@H](NC(=O)OC(C)(C)C)c4ccsc4)C[C@@](O)([C@@H](OC(=O)c4ccccc4)C12)C3(C)C` (some centres unmarked) [Compound 2511], the IC50 was < 1 nM.

For `CC(=O)OC12COC1CC(O)C1(C)C(=O)C(OC(=O)c3cccs3)C3=C(C)C(OC(=O)C(O)C(NC(=O)OC(C)(C)C)C4CCC4)CC(O)(C(OC(=O)c4ccccc4)C21)C3(C)C` (centres unmarked) [Compound 1970], the IC50 is < 10 nM.

On to `C/C=C/C(=O)O[C@H]1C(=O)[C@@]2(C)C([C@H](OC(=O)c3ccccc3)[C@]3(O)C[C@H](OC(=O)[C@H](O)[C@@H](NC(=O)OC(C)(C)C)C4CCC4)C(C)=C1C3(C)C)[C@]1(OC(C)=O)CO[C@@H]1C[C@@H]2O` (some centres unmarked) [Compound 2424], for which the IC50 was < 10 nM.

For the molecule `CCCC(=O)O[C@H]1C(=O)[C@@]2(C)C([C@H](OC(=O)c3ccccc3)[C@]3(O)C[C@H](OC(=O)[C@H](O)[C@@H](NC(=O)OCC(C)C)c4ccoc4)C(C)=C1C3(C)C)[C@]1(OC(C)=O)CO[C@@H]1C[C@@H]2O` (some centres unmarked) [Compound 4704], the IC50 was < 10 nM.

Consider `CCCC(=O)O[C@H]1C(=O)[C@@]2(C)C([C@H](OC(=O)c3ccccc3)[C@]3(O)C[C@H](OC(=O)[C@H](O)[C@@H](NC(=O)OC(C)(C)C)c4ccncc4)C(C)=C1C3(C)C)[C@]1(OC(C)=O)CO[C@@H]1C[C@@H]2O` (some centres unmarked) [Compound 0978], for which the IC50 was < 1 nM.

`CCCC(=O)N[C@@H](c1cccs1)[C@@H](O)C(=O)O[C@H]1C[C@@]2(O)[C@@H](OC(=O)c3ccccc3)C3[C@](C)(C(=O)[C@H](OC(=O)C4CC4)C(=C1C)C2(C)C)[C@@H](O)C[C@H]1OC[C@@]31OC(C)=O` (some centres unmarked) [Compound 3132]: the IC50 was < 1 nM.

In the case of `CC(=O)O[C@@]12CO[C@@H]1C[C@H](O)[C@@]1(C)C(=O)[C@H](OC(=O)C3CC3)C3=C(C)[C@@H](OC(=O)[C@H](O)[C@@H](NC(=O)c4cccnc4)c4cccs4)C[C@@](O)([C@@H](OC(=O)c4ccccc4)C12)C3(C)C` (some centres unmarked) [Compound 4112], the IC50 was < 10 nM.

As to `CCC(=O)O[C@H]1C(=O)[C@@]2(C)C([C@H](OC(=O)c3ccccc3)[C@]3(O)C[C@H](OC(=O)[C@H](O)[C@@H](NC(=O)c4ccco4)c4ccco4)C(C)=C1C3(C)C)[C@]1(OC(C)=O)CO[C@@H]1C[C@@H]2O` (some centres unmarked) [Compound 3818], the IC50 is < 1 nM.

Turning to `CCC(=O)O[C@H]1C(=O)[C@@]2(C)C([C@H](OC(=O)c3ccccc3)[C@]3(O)C[C@H](OC(=O)[C@H](O)[C@@H](NC(=O)OC(C)C)c4cccs4)C(C)=C1C3(C)C)[C@]1(OC(C)=O)CO[C@@H]1C[C@@H]2O` (some centres unmarked) [Compound 3361], the IC50 was < 1 nM.

As for `CC(=O)OC12COC1CC(O)C1(C)C(=O)C(OC(=O)c3cccs3)C3=C(C)C(OC(=O)C(O)C(NC(=O)OC(C)(C)C)c4ccsc4)CC(O)(C(OC(=O)c4ccccc4)C21)C3(C)C` (centres unmarked) [Compound 1939], the IC50 was < 1 nM.

With `CC(=O)OC12COC1CC(O)C1(C)C(=O)C(OC(=O)c3cccs3)C3=C(C)C(OC(=O)C(O)C(NC(=O)OC(C)(C)C)c4cccnc4)CC(O)(C(OC(=O)c4ccccc4)C21)C3(C)C` (centres unmarked) [Compound 1948], the IC50 was < 10 nM.

Regarding `CCCC(=O)O[C@H]1C(=O)[C@@]2(C)C([C@H](OC(=O)c3ccccc3)[C@]3(O)C[C@H](OC(=O)[C@H](O)[C@@H](NC(=O)c4ccccc4)C4CC4)C(C)=C1C3(C)C)[C@]1(OC(C)=O)CO[C@@H]1C[C@@H]2O` (some centres unmarked) [Compound 3482], the IC50 was < 1 nM.

Consider `CCC(=O)O[C@H]1C(=O)[C@@]2(C)C([C@H](OC(=O)c3ccccc3)[C@]3(O)C[C@H](OC(=O)[C@H](O)[C@@H](NC(=O)c4cccs4)c4cccs4)C(C)=C1C3(C)C)[C@]1(OC(C)=O)CO[C@@H]1C[C@@H]2O` (some centres unmarked) [Compound 3425], for which the IC50 is < 1 nM.

Consider `CCCC(=O)O[C@H]1C(=O)[C@@]2(C)C([C@H](OC(=O)c3ccccc3)[C@]3(O)C[C@H](OC(=O)[C@H](O)[C@@H](NC(=O)OCC(C)C)c4ccco4)C(C)=C1C3(C)C)[C@]1(OC(C)=O)CO[C@@H]1C[C@@H]2O` (some centres unmarked) [Compound 3957], for which the IC50 was < 10 nM.

Take `CCOC(=O)N[C@@H](c1ccco1)[C@@H](O)C(=O)O[C@H]1C[C@@]2(O)[C@@H](OC(=O)c3ccccc3)C3[C@](C)(C(=O)[C@H](OC(=O)C4CC4)C(=C1C)C2(C)C)[C@@H](O)C[C@H]1OC[C@@]31OC(C)=O` (some centres unmarked) [Compound 3677]: the IC50 was < 1 nM.

For `CC(=O)O[C@@]12CO[C@@H]1C[C@H](O)[C@@]1(C)C(=O)[C@H](OC(=O)C3CC3)C3=C(C)[C@@H](OC(=O)[C@H](O)[C@@H](NC(=O)OCC(C)C)c4ccco4)C[C@@](O)([C@@H](OC(=O)c4ccccc4)C12)C3(C)C` (some centres unmarked) [Compound 3102], the IC50 was < 1 nM.

Regarding `CC(=O)OC12COC1CC(O)C1(C)C(=O)C(OC(=O)C(C)C)C3=C(C)C(OC(=O)C(O)C(NC(=O)OC(C)(C)C)c4ccccn4)CC(O)(C(OC(=O)c4ccccc4)C21)C3(C)C` (centres unmarked) [Compound 2238], the IC50 is < 1 nM.

For `CC(=O)O[C@@]12CO[C@@H]1C[C@H](O)[C@@]1(C)C(=O)[C@H](OC(=O)C3CC3)C3=C(C)[C@@H](OC(=O)[C@H](O)[C@@H](NC(=O)OC(C)(C)C)c4ccc([N+](=O)[O-])cc4)C[C@@](O)([C@@H](OC(=O)c4ccccc4)C12)C3(C)C` (some centres unmarked) [Compound 0879], the IC50 was < 1 nM.

Regarding `CC(=O)O[C@@]12CO[C@@H]1C[C@H](O)[C@@]1(C)C(=O)[C@H](OC(=O)C3CC3)C3=C(C)[C@@H](OC(=O)[C@H](O)[C@@H](NC(=O)OC(C)(C)C)c4ccoc4)C[C@@](O)([C@@H](OC(=O)c4ccccc4)C12)C3(C)C` (some centres unmarked) [Compound 2781], the IC50 was < 1 nM.

Consider `CCC(=O)O[C@H]1C(=O)[C@@]2(C)C([C@H](OC(=O)c3ccccc3)[C@]3(O)C[C@H](OC(=O)[C@H](O)[C@H](C=C(C)C)NC(=O)c4ccccc4)C(C)=C1C3(C)C)[C@]1(OC(C)=O)CO[C@@H]1C[C@@H]2O` (some centres unmarked) [Compound 0625], for which the IC50 is < 1 nM.

For the molecule `CCOC(=O)N[C@@H](c1ccco1)[C@@H](O)C(=O)O[C@H]1C[C@@]2(O)[C@@H](OC(=O)c3ccccc3)C3[C@](C)(C(=O)[C@H](OC(=O)CC)C(=C1C)C2(C)C)[C@@H](O)C[C@H]1OC[C@@]31OC(C)=O` (some centres unmarked) [Compound 3535], the IC50 was < 1 nM.

For `CC(=O)O[C@@]12CO[C@@H]1C[C@H](O)[C@@]1(C)C(=O)[C@H](OC(=O)C3CC3)C3=C(C)[C@@H](OC(=O)[C@H](O)[C@H](C=C(C)C)NC(=O)OC(C)(C)C)C[C@@](O)([C@@H](OC(=O)c4ccccc4)C12)C3(C)C` (some centres unmarked) [Compound 0838], the IC50 is < 1 nM.

With `CC(=O)O[C@@]12CO[C@@H]1C[C@H](O)[C@@]1(C)C(=O)[C@H](OC(=O)C(C)C)C3=C(C)[C@@H](OC(=O)[C@H](O)[C@@H](NC(=O)OC(C)(C)C)c4cccnc4)C[C@@](O)([C@@H](OC(=O)c4ccccc4)C12)C3(C)C` (some centres unmarked) [Compound 2242], the IC50 was < 10 nM.

With `CCCC(=O)O[C@H]1C(=O)[C@@]2(C)C([C@H](OC(=O)c3ccccc3)[C@]3(O)C[C@H](OC(=O)[C@H](O)[C@@H](NC(=O)OC(C)(C)C)c4cccs4)C(C)=C1C3(C)C)[C@]1(OC(C)=O)CO[C@@H]1C[C@@H]2O` (some centres unmarked) [Compound 1003], the IC50 was < 1 nM.

As to `CCC(=O)O[C@H]1C(=O)[C@@]2(C)C([C@H](OC(=O)c3ccccc3)[C@]3(O)C[C@H](OC(=O)[C@H](O)[C@@H](NC(=O)c4ccco4)c4cccs4)C(C)=C1C3(C)C)[C@]1(OC(C)=O)CO[C@@H]1C[C@@H]2O` (some centres unmarked) [Compound 3053], the IC50 was < 1 nM.

`CCC(=O)O[C@H]1C(=O)[C@@]2(C)C([C@H](OC(=O)c3ccccc3)[C@]3(O)C[C@H](OC(=O)[C@H](O)[C@@H](NC(=O)OC(C)(C)C)C(C)C)C(C)=C1C3(C)C)[C@]1(OC(C)=O)CO[C@@H]1C[C@@H]2O` (some centres unmarked) [Compound 0583]: the IC50 was < 10 nM.

Take `CC(=O)O[C@@]12CO[C@@H]1C[C@H](O)[C@@]1(C)C(=O)[C@H](OC(=O)C=C(C)C)C3=C(C)[C@@H](OC(=O)[C@H](O)[C@@H](NC(=O)OC(C)(C)C)c4ccco4)C[C@@](O)([C@@H](OC(=O)c4ccccc4)C12)C3(C)C` (some centres unmarked) [Compound 2488]: the IC50 is < 1 nM.

In the case of `CC(=O)O[C@@]12CO[C@@H]1C[C@H](O)[C@@]1(C)C(=O)[C@H](OC(=O)C3CC3)C3=C(C)[C@@H](OC(=O)[C@H](O)[C@@H](NC(=O)c4ccccc4)c4cccs4)C[C@@](O)([C@@H](OC(=O)c4ccccc4)C12)C3(C)C` (some centres unmarked) [Compound 0919], the IC50 is < 1 nM.

With `CC(=O)O[C@@]12CO[C@@H]1C[C@H](O)[C@@]1(C)C(=O)[C@H](OC(=O)C3CC3)C3=C(C)[C@@H](OC(=O)[C@H](O)[C@H](C=C(C)C)NC(=O)OCC(C)C)C[C@@](O)([C@@H](OC(=O)c4ccccc4)C12)C3(C)C` (some centres unmarked) [Compound 4720], the IC50 is < 10 nM.

Turning to `CC(=O)O[C@@]12CO[C@@H]1C[C@H](O)[C@@]1(C)C(=O)[C@H](OC(=O)C3CC3)C3=C(C)[C@@H](OC(=O)[C@H](O)[C@@H](NC(=O)OC(C)(C)C)c4ccco4)C[C@@](O)([C@@H](OC(=O)c4ccccc4)C12)C3(C)C` (some centres unmarked) [Compound 0843], the IC50 is < 1 nM.

Regarding `CC(=O)OC12COC1CC(O)C1(C)C(=O)C(OC(=O)c3ccco3)C3=C(C)C(OC(=O)C(O)C(NC(=O)OC(C)(C)C)c4ccc([N+](=O)[O-])cc4)CC(O)(C(OC(=O)c4ccccc4)C21)C3(C)C` (centres unmarked) [Compound 2202], the IC50 was < 1 nM.

The values above are taken from US7524869B2, “Taxanes having a C10 ester substituent” (Florida State University Research Foundation, Inc., priority 2000, dated 2009).
